The text below walks through data of US12065436B2, “Cardiac sarcomere inhibitors” (Cytokinetics, Inc., priority 2018, dated 2024).

In general, IC50 refers to the concentration that inhibits the measured activity by half.

For this experiment, the target named is bovine cardiac myofibrils (full-length cardiac myosin ATPase in the native sarcomere) (Bos taurus (Bovine), UniProt Q9BE39). Nature of the experiment: Skinned bovine cardiac myofibril ATPase assay (PK/LDH-coupled). It is filed as biochemical. The conditions noted are these: Ca2+ activating to 75% of maximal rate; for CDMF75 IC15: concentration giving 15% inhibition; for IC50: read-out: CDMF75 IC50. In outline:
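Triton-skinned bovine left-ventricle myofibrils (1 mg/mL) in PM 12 buffer (12 mM PIPES, 2 mM MgCl2, pH 6.8) with 50 μM ATP, 0.6 mM EGTA and CaCl2 set for 50% or 75% activation. Steady-state ATPase inhibition followed by PK/LDH-coupled NADH oxidation at 340 nm.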

Sequence of bovine cardiac myofibrils (full-length cardiac myosin ATPase in the native sarcomere) (Q9BE39 whole entry): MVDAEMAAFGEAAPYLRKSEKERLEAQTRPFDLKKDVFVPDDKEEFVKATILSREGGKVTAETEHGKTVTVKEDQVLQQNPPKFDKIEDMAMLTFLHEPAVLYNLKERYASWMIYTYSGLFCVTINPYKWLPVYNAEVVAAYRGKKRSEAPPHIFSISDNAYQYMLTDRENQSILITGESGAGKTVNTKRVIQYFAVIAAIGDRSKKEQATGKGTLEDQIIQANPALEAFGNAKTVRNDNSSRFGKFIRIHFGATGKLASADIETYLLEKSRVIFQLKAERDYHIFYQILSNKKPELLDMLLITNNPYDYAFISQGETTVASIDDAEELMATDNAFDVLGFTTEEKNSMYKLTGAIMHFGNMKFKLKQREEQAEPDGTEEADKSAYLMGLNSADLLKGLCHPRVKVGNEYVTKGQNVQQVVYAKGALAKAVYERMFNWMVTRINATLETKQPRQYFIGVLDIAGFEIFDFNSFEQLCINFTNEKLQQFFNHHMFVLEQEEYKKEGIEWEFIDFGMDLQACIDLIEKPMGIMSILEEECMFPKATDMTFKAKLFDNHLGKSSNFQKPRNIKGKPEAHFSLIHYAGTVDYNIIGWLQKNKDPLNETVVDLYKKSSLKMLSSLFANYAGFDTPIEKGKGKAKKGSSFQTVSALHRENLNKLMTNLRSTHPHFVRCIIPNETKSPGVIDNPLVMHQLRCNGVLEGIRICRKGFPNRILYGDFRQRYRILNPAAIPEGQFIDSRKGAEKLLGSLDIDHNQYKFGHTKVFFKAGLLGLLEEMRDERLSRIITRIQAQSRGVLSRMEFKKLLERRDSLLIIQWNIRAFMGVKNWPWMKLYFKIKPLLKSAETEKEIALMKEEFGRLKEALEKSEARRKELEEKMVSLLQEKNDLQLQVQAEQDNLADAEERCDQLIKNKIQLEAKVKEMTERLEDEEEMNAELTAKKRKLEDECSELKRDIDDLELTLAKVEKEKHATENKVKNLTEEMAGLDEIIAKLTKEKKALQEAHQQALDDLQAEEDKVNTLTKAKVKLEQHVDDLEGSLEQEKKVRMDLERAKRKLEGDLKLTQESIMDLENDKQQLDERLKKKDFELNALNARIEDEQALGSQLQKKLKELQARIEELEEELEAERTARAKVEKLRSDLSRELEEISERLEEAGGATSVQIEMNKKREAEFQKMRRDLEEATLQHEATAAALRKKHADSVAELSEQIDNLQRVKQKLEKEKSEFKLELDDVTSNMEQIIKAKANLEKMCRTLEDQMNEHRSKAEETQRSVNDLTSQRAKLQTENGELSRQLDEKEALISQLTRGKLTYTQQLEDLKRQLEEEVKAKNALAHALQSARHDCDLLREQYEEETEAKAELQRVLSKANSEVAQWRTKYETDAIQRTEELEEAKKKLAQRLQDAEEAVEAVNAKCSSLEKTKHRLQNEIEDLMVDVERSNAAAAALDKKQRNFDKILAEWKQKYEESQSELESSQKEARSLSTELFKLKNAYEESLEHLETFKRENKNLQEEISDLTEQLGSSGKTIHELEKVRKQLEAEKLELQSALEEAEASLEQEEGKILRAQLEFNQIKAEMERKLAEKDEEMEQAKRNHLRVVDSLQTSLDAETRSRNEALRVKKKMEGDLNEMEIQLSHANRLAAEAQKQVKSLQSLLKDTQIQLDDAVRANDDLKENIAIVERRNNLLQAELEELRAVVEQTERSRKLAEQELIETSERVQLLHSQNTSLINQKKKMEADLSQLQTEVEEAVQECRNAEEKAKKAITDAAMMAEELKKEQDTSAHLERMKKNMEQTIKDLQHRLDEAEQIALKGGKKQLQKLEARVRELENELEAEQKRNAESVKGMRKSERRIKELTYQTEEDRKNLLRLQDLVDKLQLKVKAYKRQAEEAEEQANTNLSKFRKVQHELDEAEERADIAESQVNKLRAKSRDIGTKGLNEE
Sequence of bovine cardiac myofibrils (full-length cardiac myosin ATPase in the native sarcomere) (P85100 whole entry partner): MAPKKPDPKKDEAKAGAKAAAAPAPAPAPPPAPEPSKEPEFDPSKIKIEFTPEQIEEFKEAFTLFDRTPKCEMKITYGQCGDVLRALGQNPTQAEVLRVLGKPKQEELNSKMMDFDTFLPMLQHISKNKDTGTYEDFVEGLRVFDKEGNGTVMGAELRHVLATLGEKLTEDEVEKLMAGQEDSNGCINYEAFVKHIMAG
Sequence of bovine cardiac myofibrils (full-length cardiac myosin ATPase in the native sarcomere) (Q3SZE5 whole entry partner): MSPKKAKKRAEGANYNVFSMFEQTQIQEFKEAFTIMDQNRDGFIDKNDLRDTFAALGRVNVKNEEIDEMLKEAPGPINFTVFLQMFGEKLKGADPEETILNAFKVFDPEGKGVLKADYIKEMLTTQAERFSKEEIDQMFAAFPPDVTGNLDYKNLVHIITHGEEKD

Turning to `O=C(N[C@@H]1CCc2cc(-c3noc(C(F)F)n3)ccc21)c1ccc(=O)n(CCO)c1` [Compound 656, (R)-N-(5-(5-(difluoromethyl)-1,2,4-oxadiazol-3-yl)-2,3-dihydro-1H-inden-1-yl)-1-(2-hydroxyethyl)-6-oxo-1,6-dihydropyridine-3-carboxamide], the “CDMF75 IC15” value was 1.9 µM and the 50% inhibitory concentration (IC50) is 8.1 µM.

With `CCc1nc(-c2ccc3c(c2)CC[C@H]3NC(=O)c2ccnc(OC)c2)no1` [Compound 557, (R)-N-(5-(5-ethyl-1,2,4-oxadiazol-3-yl)-2,3-dihydro-1H-inden-1-yl)-2-methoxyisonicotinamide], the “CDMF75 IC15” value was found to be 0.4 µM and the IC50 is 1.4 µM.

For the compound `Cc1cc(-c2ccc3c(c2)CC[C@H]3NC(=O)c2cnc(C)o2)no1` [Compound 416, (R)-2-methyl-N-(5-(5-methylisoxazol-3-yl)-2,3-dihydro-1H-inden-1-yl)oxazole-5-carboxamide], the “CDMF75 IC15” value came to 1.2 µM and the IC50 is 4.2 µM.

On to `Cc1nc(-c2ccc3c(c2)CCC3NC(=O)c2ccnn2C)no1` (stereo not shown) [Compound 65, 1-methyl-N-(5-(5-methyl-1,2,4-oxadiazol-3-yl)-2,3-dihydro-1H-inden-1-yl)-1H-pyrazole-5-carboxamide], for which the “CDMF75 IC15” value turned out to be 0.8 µM and the 50% inhibitory concentration (IC50) came to 3 µM.

Regarding `CCc1nc(-c2ccc3c(c2)CC[C@H]3NC(=O)c2cnn(CCOC)c2C)no1` [Compound 574, (R)-N-(5-(5-ethyl-1,2,4-oxadiazol-3-yl)-2,3-dihydro-1H-inden-1-yl)-1-(2-methoxyethyl)-5-methyl-1H-pyrazole-4-carboxamide], the “CDMF75 IC15” value was determined as 1.0 µM and the half-inhibitory concentration (IC50) was 4.2 µM.

For the compound `Cc1nc(-c2ccc3c(c2)OC[C@H]3NC(=O)c2ccnn2C)no1` [Compound 122, (S)-1-methyl-N-(6-(5-methyl-1,2,4-oxadiazol-3-yl)-2,3-dihydrobenzofuran-3-yl)-1H-pyrazole-5-carboxamide], the “CDMF75 IC15” value came to 0.5 µM and the IC50 was found to be 1.8 µM.

Regarding `CCc1nc(-c2ccc3c(c2)CC[C@H]3NC(=O)c2cnn(CC3COC3)c2)no1` [Compound 506, (R)-N-(5-(5-ethyl-1,2,4-oxadiazol-3-yl)-2,3-dihydro-1H-inden-1-yl)-1-(oxetan-3-ylmethyl)-1H-pyrazole-4-carboxamide], the “CDMF75 IC15” value is 4.5 µM and the IC50 was determined as 20 µM.

For `[2H]C([2H])([2H])C(=O)N[C@@H]1COc2cc(-c3noc(C(F)F)n3)ccc21` [Compound 447, (S)-N-(6-(5-(difluoromethyl)-1,2,4-oxadiazol-3-yl)-2,3-dihydrobenzofuran-3-yl)acetamide-2,2,2-d3], the “CDMF75 IC15” value came out at 1.8 µM and the half-inhibitory concentration (IC50) stood at 9.3 µM.

On to `Cc1ncc(C(=O)N[C@@H]2CCc3cc(-c4noc(C5(C)CC5)n4)ccc32)o1` [Compound 465, (R)-2-methyl-N-(5-(5-(1-methylcyclopropyl)-1,2,4-oxadiazol-3-yl)-2,3-dihydro-1H-inden-1-yl)oxazole-5-carboxamide], for which the “CDMF75 IC15” value was 0.7 µM and the IC50 is 2.6 µM.

For the compound `Cc1cc(C(=O)N[C@@H]2CCc3cc(-c4noc(C5CCC5)n4)ccc32)ccn1` [Compound 412, (R)-N-(5-(5-cyclobutyl-1,2,4-oxadiazol-3-yl)-2,3-dihydro-1H-inden-1-yl)-2-methylisonicotinamide], the “CDMF75 IC15” value came out at 0.5 µM and the IC50 was found to be 1.8 µM.

`CC(=O)O[C@@H](C)c1nc(-c2ccc3c(c2)CCC3NC(=O)c2cn(C)nc2C)no1` (stereo partly drawn) [Compound 77, (1S)-1-(3-(1-(1,3-dimethyl-1H-pyrazole-4-carboxamido)-2,3-dihydro-1H-inden-5-yl)-1,2,4-oxadiazol-5-yl)ethyl acetate]: the “CDMF75 IC15” value worked out at 4.9 µM and the IC50 was determined as 26 µM.

Take `Cc1c(C(=O)N[C@@H]2CCc3cc(-c4noc(C5CCC5)n4)ccc32)cnn1C` [Compound 151, (R)-N-(5-(5-cyclobutyl-1,2,4-oxadiazol-3-yl)-2,3-dihydro-1H-inden-1-yl)-1,5-dimethyl-1H-pyrazole-4-carboxamide]: the “CDMF75 IC15” value is 0.5 µM and the concentration for half-maximal inhibition (IC50) amounted to 2 µM.

Turning to `CCOC(=O)c1cc(C(=O)N[C@@H]2CCc3cc(-c4noc(CC)n4)ccc32)ccn1` [Compound 555, Ethyl (R)-4-((5-(5-ethyl-1,2,4-oxadiazol-3-yl)-2,3-dihydro-1H-inden-1-yl)carbamoyl)picolinate], the “CDMF75 IC15” value is 1.0 µM and the IC50 worked out at 3.5 µM.

For `CCc1nc(-c2ccc3c(c2)CC[C@H]3NC(=O)OCC(F)F)no1` [Compound 333, 2,2-difluoroethyl (R)-(5-(5-ethyl-1,2,4-oxadiazol-3-yl)-2,3-dihydro-1H-inden-1-yl)carbamate], the “CDMF75 IC15” value worked out at 0.3 µM and the concentration for half-maximal inhibition (IC50) was 0.9 µM.

As to `Cc1nn(C)cc1C(=O)NC1CCc2cc(-c3noc([C@H](C)O)n3)ccc21` (stereo partly drawn) [Compound 80, N-(5-(5-((S)-1-hydroxyethyl)-1,2,4-oxadiazol-3-yl)-2,3-dihydro-1H-inden-1-yl)-1,3-dimethyl-1H-pyrazole-4-carboxamide], the “CDMF75 IC15” value was found to be 27.5 µM and the IC50 was over 39.2 µM.

For `COCc1nc(-c2ccc3c(c2)CC[C@H]3NC(=O)c2oc(C)nc2C)no1` [Compound 180, (R)-N-(5-(5-(methoxymethyl)-1,2,4-oxadiazol-3-yl)-2,3-dihydro-1H-inden-1-yl)-2,4-dimethyloxazole-5-carboxamide], the “CDMF75 IC15” value was determined as 1.7 µM and the IC50 turned out to be 5.8 µM.

As to `COCc1nc(-c2ccc3c(c2)CC[C@H]3NC(=O)c2ccnc(C)c2)no1` [Compound 176, (R)-N-(5-(5-(methoxymethyl)-1,2,4-oxadiazol-3-yl)-2,3-dihydro-1H-inden-1-yl)-2-methylisonicotinamide], the “CDMF75 IC15” value was found to be 1.2 µM and the 50% inhibitory concentration (IC50) amounted to 4.5 µM.

For the compound `CCc1nc(-c2ccc3c(c2)CC[C@H]3NC(=O)c2ccnnc2)no1` [Compound 632, (R)-N-(5-(5-ethyl-1,2,4-oxadiazol-3-yl)-2,3-dihydro-1H-inden-1-yl)pyridazine-4-carboxamide], the “CDMF75 IC15” value was 0.5 µM and the IC50 amounted to 1.5 µM.

With `Cc1nc(-c2ccc3c(c2)CCC3NC(=O)c2cnn(C)c2C)no1` (stereo not shown) [Compound 54, 1,5-dimethyl-N-(5-(5-methyl-1,2,4-oxadiazol-3-yl)-2,3-dihydro-1H-inden-1-yl)-1H-pyrazole-4-carboxamide], the “CDMF75 IC15” value amounted to 2.2 µM and the IC50 is 7.8 µM.

Consider `[2H]C([2H])([2H])c1noc(-c2ccc3c(c2)OC[C@H]3NC(=O)c2cnn(C)c2)n1` [Compound 311, (S)-1-methyl-N-(6-(3-(methyl-d3)-1,2,4-oxadiazol-5-yl)-2,3-dihydrobenzofuran-3-yl)-1H-pyrazole-4-carboxamide], for which the “CDMF75 IC15” value stood at 1.8 µM and the 50% inhibitory concentration (IC50) worked out at 6.3 µM.

Regarding `Cn1cc(C(=O)N[C@@H]2CCc3cc(-c4noc(C5CC5)n4)ccc32)cn1` [Compound 185, (R)-N-(5-(5-cyclopropyl-1,2,4-oxadiazol-3-yl)-2,3-dihydro-1H-inden-1-yl)-1-methyl-1H-pyrazole-4-carboxamide], the “CDMF75 IC15” value came to 0.8 µM and the IC50 came to 2.7 µM.

For the compound `Cn1nccc1C(=O)N[C@@H]1CCc2cc(-c3noc(C4CC4(C)C)n3)ccc21` (stereo partly drawn) [Compound 460, N-((1R)-5-(5-(2,2-dimethylcyclopropyl)-1,2,4-oxadiazol-3-yl)-2,3-dihydro-1H-inden-1-yl)-1-methyl-1H-pyrazole-5-carboxamide], the “CDMF75 IC15” value is 1.3 µM and the 50% inhibitory concentration (IC50) is 5.5 µM.

For the compound `CCc1nc(-c2ccc3c(c2)CC[C@H]3NC(=O)c2ccon2)no1` [Compound 585, (R)-N-(5-(5-ethyl-1,2,4-oxadiazol-3-yl)-2,3-dihydro-1H-inden-1-yl)isoxazole-3-carboxamide], the “CDMF75 IC15” value is 0.5 µM and the IC50 came out at 2.5 µM.

For the compound `CCc1nc(-c2ccc3c(c2)CC[C@H]3NC(=O)c2ccc(=O)n(CCO)c2)no1` [Compound 605, (R)-N-(5-(5-ethyl-1,2,4-oxadiazol-3-yl)-2,3-dihydro-1H-inden-1-yl)-1-(2-hydroxyethyl)-6-oxo-1,6-dihydropyridine-3-carboxamide], the “CDMF75 IC15” value was 0.8 µM and the half-maximal inhibitory concentration (IC50) turned out to be 3.4 µM.

As to `Cc1csc(C(=O)NC2CCc3cc(-c4noc(C)n4)ccc32)n1` (stereo not shown) [Compound 63, 4-methyl-N-(5-(5-methyl-1,2,4-oxadiazol-3-yl)-2,3-dihydro-1H-inden-1-yl)thiazole-2-carboxamide], the “CDMF75 IC15” value worked out at 2.3 µM and the IC50 came to 10.1 µM.

As for `COc1cc(C(=O)N[C@@H]2CCc3cc(-c4noc(C(F)F)n4)ccc32)ccn1` [Compound 684, (R)-N-(5-(5-(difluoromethyl)-1,2,4-oxadiazol-3-yl)-2,3-dihydro-1H-inden-1-yl)-2-methoxyisonicotinamide], the “CDMF75 IC15” value is 1.1 µM and the IC50 was found to be 5 µM.

`CCc1nc(-c2cnc3c(c2)CCC3NC(=O)c2ccnc(C)c2)no1` (stereo not shown) [Compound 108, N-(3-(5-ethyl-1,2,4-oxadiazol-3-yl)-6,7-dihydro-5H-cyclopenta[b]pyridin-7-yl)-2-methylisonicotinamide]: the “CDMF75 IC15” value was 5.2 µM and the IC50 was 24 µM.

Consider `Cn1cc(C(=O)NC2CCc3cc(-c4noc(C(F)F)n4)ccc32)cn1` (stereo not shown) [Compound 7, N-(5-(5-(difluoromethyl)-1,2,4-oxadiazol-3-yl)-2,3-dihydro-1H-inden-1-yl)-1-methyl-1H-pyrazole-4-carboxamide], for which the “CDMF75 IC15” value turned out to be 1.1 µM and the 50% inhibitory concentration (IC50) was determined as 4.8 µM.

Take `CCc1nc(-c2ccc3c(c2)OC[C@H]3NC(=O)N2CC[C@H](O)C2)no1` [Compound 739, (S)-N-((S)-6-(5-ethyl-1,2,4-oxadiazol-3-yl)-2,3-dihydrobenzofuran-3-yl)-3-hydroxypyrrolidine-1-carboxamide]: the “CDMF75 IC15” value came out at 5.4 µM and the half-inhibitory concentration (IC50) came out at 24.2 µM.
